pIC50: −log10 of the molar value.

Usually pIC50 stands for −log10 of the IC50, conventionally taken in molar units.

The target in experiment [1] is T1, Serine/threonine-protein kinase ULK2 (Homo sapiens) (UniProt Q8IYT8).
T1 sequence (whole entry): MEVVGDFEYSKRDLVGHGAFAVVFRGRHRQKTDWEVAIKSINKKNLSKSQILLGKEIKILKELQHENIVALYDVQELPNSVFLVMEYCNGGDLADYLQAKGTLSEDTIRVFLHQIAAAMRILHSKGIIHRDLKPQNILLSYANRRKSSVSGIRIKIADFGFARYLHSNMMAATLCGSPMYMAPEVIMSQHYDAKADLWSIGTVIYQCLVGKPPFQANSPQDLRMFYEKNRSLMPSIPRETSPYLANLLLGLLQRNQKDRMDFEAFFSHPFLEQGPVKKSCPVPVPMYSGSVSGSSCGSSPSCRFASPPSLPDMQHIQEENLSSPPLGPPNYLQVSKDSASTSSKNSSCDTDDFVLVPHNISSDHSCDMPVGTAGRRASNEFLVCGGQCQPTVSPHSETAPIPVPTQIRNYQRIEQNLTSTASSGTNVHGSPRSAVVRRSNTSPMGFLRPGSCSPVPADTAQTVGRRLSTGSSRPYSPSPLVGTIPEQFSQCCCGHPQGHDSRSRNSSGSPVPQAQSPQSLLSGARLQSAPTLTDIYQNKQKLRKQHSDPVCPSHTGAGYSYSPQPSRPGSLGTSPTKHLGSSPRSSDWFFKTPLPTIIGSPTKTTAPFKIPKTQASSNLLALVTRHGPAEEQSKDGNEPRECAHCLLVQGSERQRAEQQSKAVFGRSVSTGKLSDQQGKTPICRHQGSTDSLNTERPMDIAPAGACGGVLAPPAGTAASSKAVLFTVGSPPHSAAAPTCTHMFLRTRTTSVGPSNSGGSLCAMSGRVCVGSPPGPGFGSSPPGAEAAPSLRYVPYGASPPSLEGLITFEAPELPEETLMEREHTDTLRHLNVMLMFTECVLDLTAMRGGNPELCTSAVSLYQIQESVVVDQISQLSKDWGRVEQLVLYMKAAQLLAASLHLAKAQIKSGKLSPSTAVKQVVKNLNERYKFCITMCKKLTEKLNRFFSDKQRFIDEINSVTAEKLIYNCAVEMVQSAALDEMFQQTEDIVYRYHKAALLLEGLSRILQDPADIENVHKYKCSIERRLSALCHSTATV
Kind of experiment: Selectivity interaction (KinomeScan (DiscoverX)) EUB0000595a ULK2. The settings on record: at 10 µM.

For experiment [2], the target named is Maternal embryonic leucine zipper kinase (Homo sapiens) (UniProt Q14680). Put plainly: Selectivity interaction (KinomeScan (DiscoverX)) EUB0000666a MELK. The following applies: at 10 µM.
Sequence of Maternal embryonic leucine zipper kinase (Homo sapiens) (Q14680 whole entry, looked up): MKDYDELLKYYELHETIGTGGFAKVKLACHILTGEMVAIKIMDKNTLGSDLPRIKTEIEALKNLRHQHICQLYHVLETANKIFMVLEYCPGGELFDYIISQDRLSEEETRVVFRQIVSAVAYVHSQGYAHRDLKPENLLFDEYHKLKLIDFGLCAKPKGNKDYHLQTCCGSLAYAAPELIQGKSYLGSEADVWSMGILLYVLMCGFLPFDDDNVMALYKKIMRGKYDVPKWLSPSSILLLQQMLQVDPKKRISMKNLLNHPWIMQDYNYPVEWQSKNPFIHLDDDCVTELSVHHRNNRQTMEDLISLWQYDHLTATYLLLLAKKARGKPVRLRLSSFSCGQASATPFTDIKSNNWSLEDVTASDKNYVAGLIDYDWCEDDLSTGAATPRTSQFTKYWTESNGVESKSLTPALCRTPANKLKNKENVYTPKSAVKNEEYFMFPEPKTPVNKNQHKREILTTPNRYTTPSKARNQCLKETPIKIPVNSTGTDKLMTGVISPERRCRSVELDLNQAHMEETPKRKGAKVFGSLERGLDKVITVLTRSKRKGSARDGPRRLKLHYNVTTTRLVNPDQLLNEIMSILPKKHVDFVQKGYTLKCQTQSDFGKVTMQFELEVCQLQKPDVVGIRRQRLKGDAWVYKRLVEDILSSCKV
Experiment [3] has as its target Calcium/calmodulin-dependent protein kinase kinase 2 (Homo sapiens) (UniProt Q96RR4). Kind of experiment: Selectivity interaction (KinomeScan (DiscoverX)) EUB0000607a CAMKK2. The following applies: at 10 µM.
The target is the same in experiment [4]. Put plainly: Selectivity interaction (ActivX KiNativ screen (kinase selectivity in THP-1 cell lysates)) EUB0000639a CAMKK2. The following applies: lysate, at 1 µM. Format: subcellular.
Experiment [5] deals with MAP/microtubule affinity-regulating kinase 3 (Homo sapiens) (UniProt P27448). Kind of experiment: Selectivity interaction (ActivX KiNativ screen (kinase selectivity in THP-1 cell lysates)) EUB0000639a MARK3. Format: subcellular. The settings on record: lysate, at 0.04 µM.
Sequence of MAP/microtubule affinity-regulating kinase 3 (Homo sapiens) (P27448 whole entry, looked up): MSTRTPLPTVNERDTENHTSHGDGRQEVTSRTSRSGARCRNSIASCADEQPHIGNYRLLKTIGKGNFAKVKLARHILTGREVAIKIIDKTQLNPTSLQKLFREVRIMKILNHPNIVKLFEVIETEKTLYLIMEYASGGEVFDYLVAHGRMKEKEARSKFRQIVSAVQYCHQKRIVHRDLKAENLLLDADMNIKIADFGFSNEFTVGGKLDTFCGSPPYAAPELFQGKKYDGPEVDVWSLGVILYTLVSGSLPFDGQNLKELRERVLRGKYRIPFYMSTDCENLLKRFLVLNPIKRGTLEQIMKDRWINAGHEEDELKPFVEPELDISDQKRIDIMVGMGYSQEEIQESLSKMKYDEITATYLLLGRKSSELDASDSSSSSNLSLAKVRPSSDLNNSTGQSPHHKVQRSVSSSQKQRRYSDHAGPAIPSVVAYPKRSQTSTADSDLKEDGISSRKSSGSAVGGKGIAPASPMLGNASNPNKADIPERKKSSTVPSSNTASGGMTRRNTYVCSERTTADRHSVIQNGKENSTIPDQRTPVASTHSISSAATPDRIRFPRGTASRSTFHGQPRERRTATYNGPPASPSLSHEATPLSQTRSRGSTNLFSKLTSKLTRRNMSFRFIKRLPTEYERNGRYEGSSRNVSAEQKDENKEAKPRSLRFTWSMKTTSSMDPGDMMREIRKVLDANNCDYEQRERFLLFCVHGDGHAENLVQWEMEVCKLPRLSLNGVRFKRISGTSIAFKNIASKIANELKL
The target of experiment [6] is Mitogen-activated protein kinase kinase kinase 20 (Homo sapiens) (UniProt Q9NYL2). Kind of experiment: Selectivity interaction (ActivX KiNativ screen (kinase selectivity in THP-1 cell lysates)) EUB0000639a MAP3K20. The class given is subcellular. The following applies: lysate.
Sequence of Mitogen-activated protein kinase kinase kinase 20 (Homo sapiens) (Q9NYL2 2-800 limits assumed): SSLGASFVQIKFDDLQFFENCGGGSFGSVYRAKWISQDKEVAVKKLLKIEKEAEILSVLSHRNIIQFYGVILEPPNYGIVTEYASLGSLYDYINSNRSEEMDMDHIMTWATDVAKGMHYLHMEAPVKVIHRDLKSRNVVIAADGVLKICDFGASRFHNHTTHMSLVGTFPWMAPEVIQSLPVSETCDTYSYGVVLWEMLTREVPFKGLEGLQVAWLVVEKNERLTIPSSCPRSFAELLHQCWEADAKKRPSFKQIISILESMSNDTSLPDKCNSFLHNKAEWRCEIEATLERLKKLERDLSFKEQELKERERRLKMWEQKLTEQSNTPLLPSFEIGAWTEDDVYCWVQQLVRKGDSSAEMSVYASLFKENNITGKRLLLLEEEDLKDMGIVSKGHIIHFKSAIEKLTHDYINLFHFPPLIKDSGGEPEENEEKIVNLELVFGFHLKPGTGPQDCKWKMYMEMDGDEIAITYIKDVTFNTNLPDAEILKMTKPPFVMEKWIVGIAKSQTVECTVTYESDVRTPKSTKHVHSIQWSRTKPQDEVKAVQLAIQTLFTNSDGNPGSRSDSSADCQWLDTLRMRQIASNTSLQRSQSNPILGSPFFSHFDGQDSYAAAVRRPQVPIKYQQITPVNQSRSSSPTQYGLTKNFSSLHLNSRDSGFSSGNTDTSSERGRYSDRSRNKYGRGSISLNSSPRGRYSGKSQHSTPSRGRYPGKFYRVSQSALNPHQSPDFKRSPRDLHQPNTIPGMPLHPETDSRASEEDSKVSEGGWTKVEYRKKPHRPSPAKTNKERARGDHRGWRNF
Experiment [7] deals with Tyrosine-protein kinase JAK1 (Homo sapiens, UniProt P23458). Kind of experiment: Selectivity interaction (KinomeScan (DiscoverX)) EUB0000045b JAK1. The settings on record: at 1 µM.
Sequence of Tyrosine-protein kinase JAK1 (P23458 whole entry): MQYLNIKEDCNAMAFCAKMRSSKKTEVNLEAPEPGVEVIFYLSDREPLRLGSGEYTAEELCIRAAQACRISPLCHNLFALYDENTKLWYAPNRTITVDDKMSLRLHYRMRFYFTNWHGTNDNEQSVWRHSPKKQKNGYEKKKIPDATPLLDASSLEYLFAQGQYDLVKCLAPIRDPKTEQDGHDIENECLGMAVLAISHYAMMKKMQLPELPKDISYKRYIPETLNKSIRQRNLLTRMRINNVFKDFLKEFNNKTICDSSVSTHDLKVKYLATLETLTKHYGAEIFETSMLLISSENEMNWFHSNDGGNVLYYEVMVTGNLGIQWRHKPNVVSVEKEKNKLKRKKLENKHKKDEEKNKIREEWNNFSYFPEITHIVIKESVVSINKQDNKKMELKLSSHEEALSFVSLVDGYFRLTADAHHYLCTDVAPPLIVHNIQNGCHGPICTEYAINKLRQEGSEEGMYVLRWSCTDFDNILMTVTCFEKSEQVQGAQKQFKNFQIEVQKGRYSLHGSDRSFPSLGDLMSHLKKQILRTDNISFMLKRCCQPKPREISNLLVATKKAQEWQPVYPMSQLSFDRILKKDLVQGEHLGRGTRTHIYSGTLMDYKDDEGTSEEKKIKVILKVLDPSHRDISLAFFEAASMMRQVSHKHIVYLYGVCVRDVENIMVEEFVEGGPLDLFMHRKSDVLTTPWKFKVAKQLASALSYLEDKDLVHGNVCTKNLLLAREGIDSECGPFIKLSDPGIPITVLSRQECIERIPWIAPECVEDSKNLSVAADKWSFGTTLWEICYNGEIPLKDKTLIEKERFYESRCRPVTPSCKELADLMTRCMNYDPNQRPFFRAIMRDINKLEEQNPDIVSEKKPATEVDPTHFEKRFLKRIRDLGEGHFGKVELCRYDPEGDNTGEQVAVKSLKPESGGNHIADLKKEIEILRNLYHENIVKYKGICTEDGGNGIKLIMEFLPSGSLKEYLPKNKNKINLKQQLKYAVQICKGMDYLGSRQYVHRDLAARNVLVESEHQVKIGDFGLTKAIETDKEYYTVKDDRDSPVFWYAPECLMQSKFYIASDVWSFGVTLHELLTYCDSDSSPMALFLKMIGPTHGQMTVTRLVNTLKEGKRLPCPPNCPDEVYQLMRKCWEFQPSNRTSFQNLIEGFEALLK
For experiment [8], the target named is T2, Tyrosine-protein kinase ITK/TSK (Homo sapiens) (UniProt Q08881).
T2 sequence (whole entry): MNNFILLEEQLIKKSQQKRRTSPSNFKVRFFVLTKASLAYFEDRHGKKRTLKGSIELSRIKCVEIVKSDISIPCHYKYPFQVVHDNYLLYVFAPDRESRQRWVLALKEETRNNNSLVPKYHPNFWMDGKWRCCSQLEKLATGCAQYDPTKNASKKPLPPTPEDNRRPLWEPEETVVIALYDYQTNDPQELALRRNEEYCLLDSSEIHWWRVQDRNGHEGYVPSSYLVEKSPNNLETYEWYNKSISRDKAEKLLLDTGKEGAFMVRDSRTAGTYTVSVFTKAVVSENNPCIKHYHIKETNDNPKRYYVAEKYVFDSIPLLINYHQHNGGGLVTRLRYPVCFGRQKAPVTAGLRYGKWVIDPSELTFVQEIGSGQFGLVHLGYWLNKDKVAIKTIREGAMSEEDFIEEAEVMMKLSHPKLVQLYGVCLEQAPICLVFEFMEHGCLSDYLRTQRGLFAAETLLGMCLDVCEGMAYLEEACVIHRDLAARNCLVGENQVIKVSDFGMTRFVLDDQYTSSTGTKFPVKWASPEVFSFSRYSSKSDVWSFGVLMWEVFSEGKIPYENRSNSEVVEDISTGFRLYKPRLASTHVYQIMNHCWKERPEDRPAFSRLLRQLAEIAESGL
Put plainly: Selectivity interaction (Ambit KINOMEscan and KiNATiv profiling in Jurkat cells) EUB0000090b ITK. The settings on record: at 1 µM. The class given is cell-based.

Experiment [9] addresses Tyrosine-protein kinase receptor UFO (Homo sapiens, UniProt P30530). Kind of experiment: Selectivity interaction (Kinase panel (33PanQinase(R) Activity Assay)) EUB0000877a AXL.
For experiment [10], the target named is Phosphatidylinositol 4,5-bisphosphate 3-kinase catalytic subunit gamma isoform (Homo sapiens) (UniProt P48736). Kind of experiment: Selectivity interaction (KinomeScan (DiscoverX)) EUB0000618a PIK3CG. The following applies: at 10 µM.
Sequence of Phosphatidylinositol 4,5-bisphosphate 3-kinase catalytic subunit gamma isoform (Homo sapiens) (P48736 whole entry, looked up, canonical isoform): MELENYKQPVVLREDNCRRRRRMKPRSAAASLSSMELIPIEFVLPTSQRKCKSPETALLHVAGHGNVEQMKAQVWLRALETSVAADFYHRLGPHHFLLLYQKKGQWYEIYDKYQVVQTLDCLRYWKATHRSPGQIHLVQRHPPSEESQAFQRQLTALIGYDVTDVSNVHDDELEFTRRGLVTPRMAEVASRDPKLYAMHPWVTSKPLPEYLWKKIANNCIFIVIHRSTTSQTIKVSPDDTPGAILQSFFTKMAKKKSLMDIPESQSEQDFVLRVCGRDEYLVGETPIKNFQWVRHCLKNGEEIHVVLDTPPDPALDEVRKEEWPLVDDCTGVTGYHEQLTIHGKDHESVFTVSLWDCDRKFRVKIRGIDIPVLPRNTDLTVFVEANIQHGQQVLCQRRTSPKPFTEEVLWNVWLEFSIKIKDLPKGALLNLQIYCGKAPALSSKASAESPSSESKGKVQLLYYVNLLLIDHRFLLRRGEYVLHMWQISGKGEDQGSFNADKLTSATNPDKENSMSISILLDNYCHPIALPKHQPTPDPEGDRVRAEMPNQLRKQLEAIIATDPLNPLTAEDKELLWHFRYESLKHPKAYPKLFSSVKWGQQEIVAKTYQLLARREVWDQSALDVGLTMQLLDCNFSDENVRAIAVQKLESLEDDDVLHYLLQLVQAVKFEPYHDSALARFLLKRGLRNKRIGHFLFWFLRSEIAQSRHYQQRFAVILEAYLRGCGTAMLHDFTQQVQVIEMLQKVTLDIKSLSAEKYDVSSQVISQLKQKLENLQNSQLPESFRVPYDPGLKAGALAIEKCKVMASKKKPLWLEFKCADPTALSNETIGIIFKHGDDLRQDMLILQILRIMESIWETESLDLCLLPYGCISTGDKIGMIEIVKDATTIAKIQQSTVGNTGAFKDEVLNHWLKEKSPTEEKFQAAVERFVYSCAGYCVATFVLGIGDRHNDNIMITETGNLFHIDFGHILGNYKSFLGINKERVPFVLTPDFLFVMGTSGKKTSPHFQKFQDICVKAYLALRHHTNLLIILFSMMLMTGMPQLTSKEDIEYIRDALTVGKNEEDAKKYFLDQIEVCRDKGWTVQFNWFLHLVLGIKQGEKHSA

Sequence of Calcium/calmodulin-dependent protein kinase kinase 2 (Homo sapiens) (Q96RR4 2-588 limits assumed): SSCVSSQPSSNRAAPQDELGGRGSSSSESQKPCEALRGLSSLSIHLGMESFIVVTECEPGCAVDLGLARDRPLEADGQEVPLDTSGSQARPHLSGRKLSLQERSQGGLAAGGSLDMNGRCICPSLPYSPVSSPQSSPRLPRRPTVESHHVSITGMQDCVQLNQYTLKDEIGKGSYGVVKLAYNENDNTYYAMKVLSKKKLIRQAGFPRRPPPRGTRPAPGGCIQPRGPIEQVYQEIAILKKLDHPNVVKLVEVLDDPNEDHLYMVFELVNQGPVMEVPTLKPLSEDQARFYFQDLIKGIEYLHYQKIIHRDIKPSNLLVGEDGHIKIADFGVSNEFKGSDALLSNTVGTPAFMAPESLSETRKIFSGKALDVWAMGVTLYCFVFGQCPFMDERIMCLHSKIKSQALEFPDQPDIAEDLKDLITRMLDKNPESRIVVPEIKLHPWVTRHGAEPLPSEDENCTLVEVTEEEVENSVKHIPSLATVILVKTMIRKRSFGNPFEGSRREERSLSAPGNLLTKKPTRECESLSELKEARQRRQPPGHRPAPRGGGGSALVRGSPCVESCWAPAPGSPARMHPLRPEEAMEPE

In the case of `COCC(=O)NC/C=C/c1ccc2ncnc(Nc3ccc(Oc4ccc(C)nc4)c(C)c3)c2c1` [CP-724714], in experiment [1], the % of control is 100%.
For `O=C(NOC[C@H](O)CO)c1ccc(F)c(F)c1Nc1ccc(I)cc1F`, the % of control in experiment [2] amounted to 80%.
`CNC(=O)Nc1ccc(-c2nc(N3CC4CCC(C3)O4)c3cnn(C4CCC5(CC4)OCCO5)c3n2)cc1`: in experiment [3], the % of control was 100%.
Take `CC[C@@H]1[C@H](F)C(=O)N[C@@H]1COc1nccc2cc(C(N)=O)c(OC)cc12` [ZIMLOVISERTIB]: the % of inhibition is 12.1% in experiment [4]; -13.3% in [5]; -7.8% in experiment [6] (at 0.01 µM); -3.3% in [6] (at 0.04 µM); 9.5% in experiment [6] (at 0.2 µM); 12.2% in [6] (at 1 µM). Also, the % of inhibition in [6] (at 5 µM) was -6.6%.
On to `C=CC(=O)Nc1cc(-n2c(=O)ccc3cnc4ccc(-c5ccc(NS(C)(=O)=O)cc5)cc4c32)ccc1C`, for which, in [7], the % of control was found to be 99%.
With `CN(C)C/C=C/C(=O)Nc1ccc(C(=O)N2CCCC(Nc3ncc(Cl)c(-c4c[nH]c5ccccc45)n3)C2)cc1` (centres undefined), in experiment [8], the % of control came to 91%.
The molecule `CCC(=O)N1CC[C@H](Nc2ncnc3c2CN(c2cnc(OC)c(C(F)(F)F)c2)CC3)C1` [LENIOLISIB] gave a pIC50 in experiment [9] below 5.00.
The molecule `O[C@H]1CC[C@H](Nc2ncc3nc(Nc4c(F)cc(F)cc4F)n([C@H]4CCOC4)c3n2)CC1` had a % of control in experiment [10] of 100%.

The values are drawn from ChEMBL document CHEMBL5465560, “Selectivity Literature for EUbOPEN Chemogenomic Library” (2024).
